In BindingDB's records for doi:10.1002/cbic.201100007 (Yale University, 2011):

Target: T1, dCTP pyrophosphatase 1 (Homo sapiens, UniProt Q9H773)
T1 sequence (Q9H773 whole entry): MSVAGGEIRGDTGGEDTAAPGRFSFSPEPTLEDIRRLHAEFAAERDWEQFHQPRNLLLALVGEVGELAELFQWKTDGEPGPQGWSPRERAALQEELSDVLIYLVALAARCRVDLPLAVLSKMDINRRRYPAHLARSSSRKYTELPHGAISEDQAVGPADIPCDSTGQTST
Assay: Enzyme Assay
Conditions: pH 7.4; 25 °C
Experimental: Kinetic enzyme assays were performed in a 384-well, white plates (Nunc) on a Wallac Victor 2 plate reader using human DCTPP1 and triptolide and analogues.

Compound | Ki
CC(C)[C@]12O[C@H]1[C@@H]1O[C@@]13[C@@]1(C)CCC4=C(COC4=O)[C@]1(O)C[C@@H]1O[C@@]13C2=O [5-Hydroxytriptonide, 6] | 356 µM
CC(C)[C@]1(O)[C@H](O)[C@@H]2O[C@]23[C@]2(O[C@H]2CC2C4=C(CC[C@@]23C)C(=O)OC4)[C@@H]1O (some centres not stated) [Triptriolide, 5] | 85 µM
